In patent US20060122276A1, “Agent for inhibiting membrane virus reproduction, method for the production thereof, pharmaceutical composition and method for inhibiting viral infections” (priority 2003, published 2006):
Read-outs that look alike come from different tables or passages of the source.

Key:
HIV-1 = conditions: for CPE/syncytia, % / Viability of cells, %: HIV-1; for CPE/syncytia, %: Table 9; for Viability of cells, %: Table 9 (virus control 42)
Method: Cells Reinoculated humans lymphoblastoid cells MT-4 were used. […] The viability of the cells was determined from the color of a 0.4% solution of trypan blue.
Retrovir (azidothymidin) produced by GlaxoWellcome (Great Britain) was used as positive control.
The Antiviral activity of the preparations was investigated on a model of lymphoblastoid cells in a plastic 24-cell plate. The virus dose was 100 TCD50 (50% tissue cytopathic dose). […] The activity of the preparation was determined from the inhibition of the virus-induced cytopathic action (CPA) in the cell cultures and the virus antigen level in the culture fluid by immunoenzymatic analysis.

[1] = test system: lymphoblastoid human cells MT-4; assay: Cytotoxicity on non-infected human lymphoblastoid cells; format: cell-based; conditions: cytotoxicity
[2] = test system: herpes simplex virus (HSV-1); assay: Antiviral activity with respect to HSV-1 in VERO cells; format: cell-based, type 1, strain L2; conditions: HSV-1, 10 TCD50/ml, VERO; for Degree of protection from CE virus, % A: substance contact time with cells 24 hrs; for Degree of protection from CE virus, % B: substance contact time with cells 48 hrs
Excerpt: Herpes simplex virus, type 1, strain L2, replicated in VERO cells was used in the investigation.
[…] acyclovir was used as positive control

[3] = for Solubility in o-Dichlorobenzene: solvent o-dichlorobenzene
[4] = 300 μg/ml, human lymphoblastoid cells

Row | Compound | Antiviral activity with respect to HIV-1 compared with fullerene-polyamino-caproic acid (HIV-1) | CPE/syncytia, % (HIV-1; 0.1 μg/ml) | Viability of cells, % (HIV-1; 0.1 μg/ml) | CPE/syncytia, % (HIV-1; 0.5 μg/ml) | Viability of cells, % (HIV-1; 0.5 μg/ml) | CPE/syncytia, % (HIV-1; 1.0 μg/ml) | Viability of cells, % (HIV-1; 1.0 μg/ml) | CPE/syncytia, % (HIV-1; 10.0 μg/ml) | Viability of cells, % (HIV-1; 10.0 μg/ml) | Degree of protection from CE virus, % A ([2]; 10.0 μg/ml) | Degree of protection from CE virus, % B ([2]; 10.0 μg/ml) | Solubility in o-Dichlorobenzene [3] | also measured
1 | sodium salt of fullerene-polyamino-octanoic acid [AOA] | lower antiviral activity | 25% | 50% | 25% | 53% | 25% | 57% | 0% | 60% | 100% | 100% | – | Viability of cells, % ([1]; 100 μg/ml, human lymphoblastoid cells (cell control 95)): 79%; Number of cells × 10^3/ml ([1]; 100 μg/ml, human lymphoblastoid cells (cell control 250)): 150 × 10^3/ml; Number of cells × 10^3/ml [1, 4]: 150 × 10^3/ml; Viability of cells, % [1, 4]: 82%; Degree of protection from CE virus, % A ([2]; 1.0 μg/ml): 33.3%; Degree of protection from CE virus, % B ([2]; 1.0 μg/ml): 100%
2 | sodium salt of fullerene-polyamino-butyric acid [ABA] | lower antiviral activity | 25% | 52% | 15% | 65% | 10% | 71% | 0% | 72% | 33.3% | 33.3% | No | Degree of protection from CE virus, % A ([2]; 0.1 μg/ml): 0.0%; Degree of protection from CE virus, % B ([2]; 0.1 μg/ml): 33.3%; Degree of protection from CE virus, % A ([2]; 25.0 μg/ml): 100%; Degree of protection from CE virus, % B ([2]; 25.0 μg/ml): 100%; Degree of protection from CE virus, % A ([2]; 50.0 μg/ml): 100%; Degree of protection from CE virus, % B ([2]; 50.0 μg/ml): 100%
3 | c12c3c4c5c1c1c6c7c2c2c8c3c3c9c4c4c%10c5c5c1c1c6c6c%11c7c2c2c7c8c3c3c8c9c4c4c9c%10c5c5c1c1c6c6c%11c2c2c7c3c3c8c4c4c9c5c1c1c6c2c3c41 [Fullerene] | – | – | – | – | – | – | – | – | – | – | – | Yes | Solubility in Glacial acetic acid ([3]; solvent glacial acetic acid): No; Solubility in Toluene ([3]; solvent toluene): Yes; Solubility in Water ([3]; solvent water): No
